What was measured:
HEK293T and HeLa cells = experiment: MTT assay; assay type: cell-based; conditions: under reporter-assay treatment, high concentrations
Description: (§1) Fig. 1 RA-V inhibits TNF-α- and LPS-induced activation of NF-κB. a Chemical structure of RA-V. b RA-V inhibited the NF-κB signaling pathway in a dose-dependent manner. HEK293T or HeLa cells were transfected with the 5 × κB-luciferase and pTK-Renilla reporters. Twenty-four hours after transfection, the cells were incubated with various concentrations of RA-V for 6 h, and then treated with 10 ng/mL TNF-α for 2 h before the luciferase activity assay and MTT assay. c RA-V reduced TNF-α-induced expression of NF-κB target genes. HEK293T or HeLa cells were treated with various concentrations of RA-V for 24 h and stimulated with 10 ng/mL TNF-α for 2 h. The expression of the NF-κB target genes, IL-8, MCP-1, and E-selectin was measured by quantitative RT-PCR and normalized to GADPH expression. d RA-V inhibited TNF-α-induced p65 phosphorylation, IκBα phosphorylation and IκBα degradation. […] The expression of IL-6 was measured. h RA-V inhibited LPS-induced p65 phosphorylation, IκBα phosphorylation. […] The protein expression was measured. i RA-V inhibited LPS-induced IL-6 production. […] The expression of IL-6 was measured.
HEK293T cells (5 × 10^3 cells/well) or HeLa cells (3 × 10^3 cells/well) were seeded in a 96-well plate with 100 μL medium and cultured for 12 h in a CO2 incubator. […] After 4 h, the medium was replaced with 150 μL DMSO, and the optical density was measured at […] (Molecular Devices). […]

[1] = tested on: NF-κB target genes, IL-8, MCP-1, and E-selectin; experiment: Quantitative RT-PCR of TNF-α-induced NF-κB target genes; assay type: cell-based, Homo sapiens; conditions: HEK293T or HeLa; RA-V 24 h, 10 ng/mL TNF-α 2 h; normalized to GADPH
Description: as §1
The total RNA was extracted from the indicated cells using TRIzol reagent (Invitrogen) according to the manufacturer’s instructions and then was reverse transcribed. The RNA concentrations were measured spectrophotometrically with a BioPhotometer (Eppendorf). […]

## RA-V
HEK293T and HeLa cells
  antiproliferative effect (MTT): only a slight antiproliferative effect
[1]
  TNF-α-induced expression of IL-8, MCP-1, and E-selectin: dose-dependently decreased
